Here are results for 9 compounds from ChEMBL document CHEMBL1201862, “PubChem BioAssay data set” (2004).

SMILES strings stand for the structures. Calls of active or inactive are those of the source.

The nature of assay [1]: microbe, parasite or virus in culture. Type of assay: functional. The conditions noted are these: Mycobacterium tuberculosis.
For assay [2], the target named is Voltage-dependent T-type calcium channel subunit alpha-1H (Homo sapiens, UniProt O95180). It counts as functional.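 Further: channel activity triggered by adding a high calcium stimulation buffer.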
In a further assay the test system is Streptococcus. Kind of assay: GAS UMAA2166 growth inhibition – luminescence, BacTiterGlo, counter-screen for streptokinase expression inhibitor project, dose response (AID 1915).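 Further: potency for reduction of bacterial viability or growth.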 Type of assay: functional, organism-based. (A counterscreen serves to expose hits that act by an unwanted route or on another target.)
Assay [3] concerns Streptococcus sp. 'group A'. Kind of assay: Streptococcus pyogenes SK(-)GAS viability under kanamycin – luminescence, BacTiterGlo, confirmation, counter-screen for streptokinase expression inhibitor project, dose response (AID 1900). It counts as functional, organism-based.
The next assay has as its target T1, Streptokinase A (Streptococcus pyogenes serotype M1, UniProt P10520).
T1 sequence (P10520 whole entry): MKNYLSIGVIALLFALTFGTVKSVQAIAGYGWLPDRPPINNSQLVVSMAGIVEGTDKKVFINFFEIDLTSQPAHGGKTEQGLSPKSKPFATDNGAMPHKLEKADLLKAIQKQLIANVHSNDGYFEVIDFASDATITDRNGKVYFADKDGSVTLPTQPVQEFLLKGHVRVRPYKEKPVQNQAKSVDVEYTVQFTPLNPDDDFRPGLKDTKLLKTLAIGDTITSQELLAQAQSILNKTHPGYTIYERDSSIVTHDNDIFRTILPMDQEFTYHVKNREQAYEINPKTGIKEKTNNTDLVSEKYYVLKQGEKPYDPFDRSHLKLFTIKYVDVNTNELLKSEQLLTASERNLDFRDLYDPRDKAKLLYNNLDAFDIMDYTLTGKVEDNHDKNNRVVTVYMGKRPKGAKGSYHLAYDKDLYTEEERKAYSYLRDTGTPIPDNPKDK
Description: viability-normalized secreted streptokinase activity reduction – plasminogen activation absorbance, OD405, dose response (AID 1914).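 Further: secreted streptokinase activity via plasminogen activation per viability signal from cell pellet.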 It counts as functional, Streptococcus pyogenes M1 GAS.

Assay [4] has as its target DNA dC->dU-editing enzyme APOBEC-3G (Homo sapiens, UniProt Q9HC16). Kind of assay: Dose Response confirmation of small molecule APOBEC3G DNA Deaminase Inhibitors via a fluorescence-based single-stranded DNA deaminase assay. [Related pubchem assays (depositor defined):AID493012, AID493028]. Type of assay: functional.
The target in another assay is Large T antigen (Simian virus 40, UniProt P03070). It counts as functional, Betapolyomavirus macacae.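 Further: Confirmatory-stage PubChem screen for compounds that inhibit SV40 T antigen.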
Assay [5] addresses Heat shock protein HSP 90-alpha (Homo sapiens, UniProt P07900). It counts as functional, organism-based.
The target of assay [6] is T2, Voltage-gated N-type calcium channel alpha-1B subunit/Amyloid beta A4 precursor protein-binding family A member 1 (Homo sapiens, UniProt Q00975+Q02410). Type of assay: protein assay.
The target of assay [7] is T2, Voltage-gated N-type calcium channel alpha-1B subunit/Amyloid beta A4 precursor protein-binding family A member 1. Type of assay: protein assay. The source holds these as a separate data set.
The target in a further assay is Beta-galactosidase (Escherichia coli, UniProt Q8VNN2). Kind of assay: detection-enzyme interference by beta-gal modulators – biochemical, E. coli enzyme, set 3, artefact control for CCR6 antagonist project, dose response (AID 504712). It counts as functional.
Assay [8] concerns HEK293. Description: cells. The following applies: Homo sapiens.
The subject of assay [9] is HEK293. Description: cells. The following applies: Homo sapiens. The source holds these as a separate data set.
For assay [10], the target named is FAD-linked sulfhydryl oxidase ALR (Homo sapiens, UniProt P55789). Description: ALR-catalysed DTT oxidation blockers – biochemical, H2O2 detection, luminescence, cherry-pick, dose response (AID 493248).
Assay [11] is described as follows: THP-1 cell cytotoxicity, dose response, cytotoxicity control for non-replicating M. tuberculosis project (AID 489025). Type of assay: functional.
Assay [12] in a line: HEK-293T cell viability reduction – luminescence, B-cell screen hits, cytotoxicity control for BCR NF-kB inhibitor project, dose response (AID 489021).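 Further: HEK-293T cells carrying an NF-kB luciferase reporter; cells exposed to compound for about 14 hours before viability readout.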 It counts as functional, cell-based.
Assay [13] is described as follows: Luminescence Cell-Based Dose Response HTS to Identify Activators of Luciferase Translation or Activity in H4 […] Cells. [Related pubchem assays: 1829 (Project Summary), 1814 (Primary HTS)]. It counts as functional.
For another assay, the system named is H4. Description: Luminescence Cell-Based Dose Response HTS to Identify Activators of 5'UTR Stem-Loop Driven Prion Protein mRNA Translation in H4 Neuroglioblastoma Cells. [Related pubchem assays: 1829 (Project Summary), 1814 (Primary HTS)]. It counts as functional. The following applies: Homo sapiens.
A short description of assay [14]: Vero E6 cell cytotoxicity, dose response, cytotoxicity control for non-replicating M. tuberculosis project, secondary assay (AID 492998). It counts as functional, VeroE6. The conditions noted are these: Vero C1008.
The target in assay [15] is T3, Polyadenylate-binding protein 1 (Homo sapiens, UniProt P11940). Kind of assay: MLLE binding blockers, Cy5 peptide tracer – biochemical, fluorescence polarization, Cy5-PAM2 peptide, secondary, miRNA deadenylation inhibitor project, dose response (AID 602260). It counts as functional. The conditions noted are these: read-out: IC50_Mean. A general note: In fluorescence polarisation assays a small probe gives low polarisation when free and higher when bound to something large.

The next assay is described as follows: cells. Type of assay: functional.
Assay [16] can be described thus: Luminescence Cell-Based Dose Confirmation HTS to Identify Activators of 5'UTR Stem-Loop Driven Alpha-Synuclein mRNA Translation in H4 Neuroglioblastoma Cells. [Related pubchem assays: 1829 (Project Summary), 1814 (Primary HTS)]. It counts as functional.
Assay [17] addresses T3, Polyadenylate-binding protein 1. Description: MLLE domain peptide-binding blockers, IC50 – biochemical, fluorescence polarization, FITC-PAM2 peptide, dose response (AID 602259). The following applies: read-out: IC50_Mean. It counts as functional.
Assay [18] in a line: NIH3T3 cell viability loss – ATP luminescence, mouse fibroblasts, counter-screen, dose response (AID 2010).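 Further: cells exposed to compound for about 90 hours before reading.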 Type of assay: functional, cell-based.
The nature of assay [19]: Trypanosoma cruzi growth suppression in host cells – NIH3T3 host cells, beta-gal luminescence, confirmation (AID 2044).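 Further: intracellular parasites grown in NIH/3T3 mouse fibroblasts as host cells; luminescent beta-galactosidase reporter signal from transgenic T. cruzi replicating inside host cells; inhibitors lower the luminescence signal.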 Type of assay: functional, cell-based.

T2 sequence (Q00975 whole entry): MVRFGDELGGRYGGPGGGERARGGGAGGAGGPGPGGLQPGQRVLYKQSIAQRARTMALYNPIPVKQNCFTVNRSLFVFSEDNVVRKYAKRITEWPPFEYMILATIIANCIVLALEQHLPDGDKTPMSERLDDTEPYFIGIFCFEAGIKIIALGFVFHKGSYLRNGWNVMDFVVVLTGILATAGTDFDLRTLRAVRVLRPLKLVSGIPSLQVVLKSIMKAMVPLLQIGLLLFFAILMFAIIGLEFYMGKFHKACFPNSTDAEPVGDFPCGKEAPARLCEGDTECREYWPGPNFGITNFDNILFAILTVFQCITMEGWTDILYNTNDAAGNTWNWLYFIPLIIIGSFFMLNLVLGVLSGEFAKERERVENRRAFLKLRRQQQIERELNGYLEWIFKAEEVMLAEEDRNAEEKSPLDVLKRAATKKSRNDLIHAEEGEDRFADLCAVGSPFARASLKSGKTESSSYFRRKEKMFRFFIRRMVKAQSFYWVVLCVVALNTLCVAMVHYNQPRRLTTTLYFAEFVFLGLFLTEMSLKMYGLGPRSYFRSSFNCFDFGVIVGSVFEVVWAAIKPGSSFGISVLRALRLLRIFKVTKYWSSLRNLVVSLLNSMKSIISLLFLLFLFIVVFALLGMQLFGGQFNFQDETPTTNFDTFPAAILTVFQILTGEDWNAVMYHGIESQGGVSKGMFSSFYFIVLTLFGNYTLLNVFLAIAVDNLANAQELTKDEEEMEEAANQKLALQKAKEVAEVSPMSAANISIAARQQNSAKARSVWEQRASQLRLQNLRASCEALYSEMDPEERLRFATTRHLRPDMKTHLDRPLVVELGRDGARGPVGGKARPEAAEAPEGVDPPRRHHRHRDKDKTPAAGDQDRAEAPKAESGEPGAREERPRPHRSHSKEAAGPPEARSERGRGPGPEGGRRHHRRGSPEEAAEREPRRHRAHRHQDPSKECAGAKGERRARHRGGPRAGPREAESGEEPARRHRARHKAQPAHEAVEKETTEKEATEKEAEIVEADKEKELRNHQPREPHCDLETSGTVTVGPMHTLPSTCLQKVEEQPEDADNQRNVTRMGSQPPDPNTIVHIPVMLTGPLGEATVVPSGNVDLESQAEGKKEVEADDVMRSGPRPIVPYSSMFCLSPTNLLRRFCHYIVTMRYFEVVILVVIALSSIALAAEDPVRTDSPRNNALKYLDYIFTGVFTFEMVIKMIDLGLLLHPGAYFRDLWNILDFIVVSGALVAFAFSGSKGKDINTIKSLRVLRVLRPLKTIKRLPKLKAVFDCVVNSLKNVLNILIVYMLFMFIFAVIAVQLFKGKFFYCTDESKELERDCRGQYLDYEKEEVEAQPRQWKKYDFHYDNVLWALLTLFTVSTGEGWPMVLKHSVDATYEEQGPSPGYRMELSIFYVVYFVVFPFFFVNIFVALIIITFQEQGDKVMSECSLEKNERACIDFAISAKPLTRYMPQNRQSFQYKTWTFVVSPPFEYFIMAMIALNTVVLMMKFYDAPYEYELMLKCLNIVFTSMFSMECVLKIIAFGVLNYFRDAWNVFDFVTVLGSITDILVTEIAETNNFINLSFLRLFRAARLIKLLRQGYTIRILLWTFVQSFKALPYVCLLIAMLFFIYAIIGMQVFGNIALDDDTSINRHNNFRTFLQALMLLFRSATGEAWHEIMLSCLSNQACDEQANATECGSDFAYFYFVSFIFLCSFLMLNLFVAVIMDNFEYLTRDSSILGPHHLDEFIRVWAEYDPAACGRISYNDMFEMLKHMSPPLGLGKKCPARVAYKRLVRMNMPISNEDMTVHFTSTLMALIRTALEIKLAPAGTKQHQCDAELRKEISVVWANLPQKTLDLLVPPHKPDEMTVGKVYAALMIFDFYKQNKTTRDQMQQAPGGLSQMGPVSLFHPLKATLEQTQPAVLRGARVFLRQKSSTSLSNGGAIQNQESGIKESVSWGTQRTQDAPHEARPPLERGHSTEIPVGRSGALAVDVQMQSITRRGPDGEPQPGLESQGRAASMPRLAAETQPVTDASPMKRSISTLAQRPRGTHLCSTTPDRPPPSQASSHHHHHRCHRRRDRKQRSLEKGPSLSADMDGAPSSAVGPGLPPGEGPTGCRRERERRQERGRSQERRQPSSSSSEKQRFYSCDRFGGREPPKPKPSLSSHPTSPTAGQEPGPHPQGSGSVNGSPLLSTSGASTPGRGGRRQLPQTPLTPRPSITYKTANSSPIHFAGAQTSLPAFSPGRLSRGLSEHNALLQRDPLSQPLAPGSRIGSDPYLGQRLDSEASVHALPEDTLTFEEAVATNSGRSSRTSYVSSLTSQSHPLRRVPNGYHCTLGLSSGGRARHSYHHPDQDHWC
T2 sequence (Q02410 whole entry): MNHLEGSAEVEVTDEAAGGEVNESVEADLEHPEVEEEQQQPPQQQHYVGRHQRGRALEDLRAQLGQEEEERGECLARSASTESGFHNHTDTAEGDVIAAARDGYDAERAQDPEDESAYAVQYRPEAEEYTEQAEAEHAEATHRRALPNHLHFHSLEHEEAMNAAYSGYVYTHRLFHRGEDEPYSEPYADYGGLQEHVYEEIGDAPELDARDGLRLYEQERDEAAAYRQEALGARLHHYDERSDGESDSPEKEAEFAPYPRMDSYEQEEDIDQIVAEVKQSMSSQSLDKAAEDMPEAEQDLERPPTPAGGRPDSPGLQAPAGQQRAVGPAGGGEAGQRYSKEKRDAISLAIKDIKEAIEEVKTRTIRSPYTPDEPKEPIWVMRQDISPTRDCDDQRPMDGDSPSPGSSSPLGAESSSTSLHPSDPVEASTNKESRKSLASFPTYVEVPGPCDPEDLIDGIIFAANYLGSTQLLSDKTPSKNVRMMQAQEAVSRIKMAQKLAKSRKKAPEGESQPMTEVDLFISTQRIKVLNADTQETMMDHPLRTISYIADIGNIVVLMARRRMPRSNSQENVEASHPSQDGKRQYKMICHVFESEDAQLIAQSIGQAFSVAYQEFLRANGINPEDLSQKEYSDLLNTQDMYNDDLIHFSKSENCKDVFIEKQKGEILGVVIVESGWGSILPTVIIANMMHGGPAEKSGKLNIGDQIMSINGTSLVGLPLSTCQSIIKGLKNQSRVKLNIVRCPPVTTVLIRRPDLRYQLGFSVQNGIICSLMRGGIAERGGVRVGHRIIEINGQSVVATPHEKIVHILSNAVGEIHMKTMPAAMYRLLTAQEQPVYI
T3 sequence (P11940 whole entry): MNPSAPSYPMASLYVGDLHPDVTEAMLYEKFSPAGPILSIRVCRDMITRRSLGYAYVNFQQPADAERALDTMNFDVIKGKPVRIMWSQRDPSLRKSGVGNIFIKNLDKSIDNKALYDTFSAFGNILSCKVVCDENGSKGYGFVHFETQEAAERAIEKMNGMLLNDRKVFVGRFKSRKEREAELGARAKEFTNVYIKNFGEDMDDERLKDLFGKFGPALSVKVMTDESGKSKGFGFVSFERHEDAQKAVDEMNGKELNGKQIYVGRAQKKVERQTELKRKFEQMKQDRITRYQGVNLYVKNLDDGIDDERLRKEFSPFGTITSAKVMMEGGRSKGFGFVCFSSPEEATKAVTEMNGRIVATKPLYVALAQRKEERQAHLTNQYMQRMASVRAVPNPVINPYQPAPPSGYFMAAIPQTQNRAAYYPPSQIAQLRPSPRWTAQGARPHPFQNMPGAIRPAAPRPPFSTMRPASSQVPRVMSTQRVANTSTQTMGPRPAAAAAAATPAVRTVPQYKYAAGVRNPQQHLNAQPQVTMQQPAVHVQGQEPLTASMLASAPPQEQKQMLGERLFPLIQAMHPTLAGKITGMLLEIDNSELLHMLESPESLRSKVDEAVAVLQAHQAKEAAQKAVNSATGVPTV
Sequence of DNA dC->dU-editing enzyme APOBEC-3G (Q9HC16 whole entry): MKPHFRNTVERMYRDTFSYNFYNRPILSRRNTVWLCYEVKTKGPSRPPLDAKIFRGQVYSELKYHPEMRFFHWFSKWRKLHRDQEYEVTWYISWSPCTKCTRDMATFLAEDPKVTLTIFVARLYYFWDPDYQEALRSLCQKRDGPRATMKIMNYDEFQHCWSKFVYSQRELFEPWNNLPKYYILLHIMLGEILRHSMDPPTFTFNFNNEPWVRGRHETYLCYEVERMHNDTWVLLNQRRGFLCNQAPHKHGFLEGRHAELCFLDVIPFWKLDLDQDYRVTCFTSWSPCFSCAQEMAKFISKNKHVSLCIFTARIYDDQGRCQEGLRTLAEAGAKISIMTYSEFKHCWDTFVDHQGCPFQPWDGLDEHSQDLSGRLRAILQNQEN
Sequence of FAD-linked sulfhydryl oxidase ALR (P55789 whole entry): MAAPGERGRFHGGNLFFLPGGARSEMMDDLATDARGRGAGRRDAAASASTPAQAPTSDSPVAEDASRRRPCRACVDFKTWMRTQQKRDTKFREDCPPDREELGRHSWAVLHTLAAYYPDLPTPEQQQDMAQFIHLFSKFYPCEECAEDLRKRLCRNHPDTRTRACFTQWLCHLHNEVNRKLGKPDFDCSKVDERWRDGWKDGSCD

Usually EC50 stands for the concentration needed to bring the measured effect to its halfway point. With `O=C(OCc1ccccc1)c1cccc(-c2nnn(Cc3ccccc3)n2)c1`, in assay [1], the CC50 is > 40 µM (active). In addition, the EC50 in assay [2] was 9.03 µM (active); in the assay on Streptococcus it was > 150 µM (not active); in assay [3], > 150 µM (not active); at Streptokinase A, 26 µM (inconclusive).

A word on the AC50: it is the concentration at which the activity in the assay is half-maximal. Consider `COc1cc(N2C(=O)C=CC2=O)c(OC)cc1Cl`, for which the IC50 in assay [4] is 44 µM (active); on Large T antigen, 54.6 µM (active); in assay [6], 11.6 µM (active); in [7] it was 1.97 µM (active); on Beta-galactosidase, > 66.6 µM (inactive). For the same compound, the AC50 in [5] is 2.72 µM (active).

As for `Cc1ccc(N(C(=O)Cc2cccs2)C(C(=O)NC2CCCCC2)c2ccccn2)cc1C` (stereo not given), the half-maximal effective concentration (EC50) in the assay with HEK293 [8] was > 0.245 µM (active); with HEK293 [9] it was > 59.6 µM (inactive).

For `CN(C)c1nc(-c2ccccc2)[n+](C)s1`, the IC50 was 3.76 µM (active) in [6] and > 50 µM (inactive) in [7].

Regarding `Cn1cnc([N+](=O)[O-])c1Sc1ccc([N+](=O)[O-])cc1`, the AC50 in [10] is 8.39 µM (active). In addition, the CC50 in assay [11] was > 40 µM (active); in [14], > 20 µM (active). In addition, the IC50 in assay [12] is > 80 µM (inactive); in [15], > 66 µM (inactive); in the assay “cells” it was 10.8 µM (active); in assay [17] it was > 66 µM (inactive). For the same compound, the EC50 (in assay [13]; with H4; in assay [16]) was > 120 µM (not active) in each case.

For `Cc1ccc(C)c(-c2csc(NC(=O)c3cnccn3)n2)c1`, the 50% effective concentration (EC50) in assay [18] is 10.4 µM (active); in assay [19], 2.04 µM (active). In addition, in [14], the CC50 was 17.6 µM (active). Moreover, the IC50 in “cells” was 3.99 µM (active).

Take `N#CC1=C(SCc2ccc(C#N)cc2)N=C(N)C(c2nc(-c3ccccc3)cs2)C12CCCCC2` (stereo not given): the EC50 with HEK293 [8] and in the assay on HEK293 [9] was > 59.6 µM (inactive) throughout.

Consider `Cc1cc(C(=O)N/N=C/c2ccc(Cl)c([N+](=O)[O-])c2)c(C)n1-c1ccc(F)cc1`, for which the EC50 in the assay with HEK293 [8] and in the assay with HEK293 [9] was > 59.7 µM (inactive) in each case.

Consider `COc1ccccc1NC(=O)/C(O)=C/C(=O)c1ccccc1`, for which the CC50 in assay [14] is > 20 µM (active). Besides, the IC50 in the assay “cells” is 32 µM (active).
